ChEMBL document CHEMBL1157539, “Thousands of chemical starting points for antimalarial lead identification” (Nature, 2010)

System: Plasmodium falciparum
Test: GSK_TCMDC: Inhibition of Plasmodium falciparum 3D7 in whole erythrocytes, using parasite LDH activity as an index of growth.
Format: functional, organism-based
Conditions: Plasmodium falciparum, 3D7

| SMILES | XC50 |
| --- | --- |
| CCCCN(CCCC)CCNC(=O)c1ccc(-c2nc3cc(Cl)ccc3[nH]2)c(OCC)c1 | 0.57 µM |
| CNC(=O)c1ccc2nc(C3CC3)n(CC3CCN(S(=O)(=O)c4cccc(Cl)c4)CC3)c2c1 | 0.651 µM |
| Cc1cccc2nc(-c3ccc(-c4ccc(NC(=O)Nc5cccc(C#N)c5)cc4)s3)[nH]c12 | 0.117 µM |
| CCn1c(-c2nonc2N)nc2c(C#CC(C)(C)O)ncc(OCCNCCc3ccc(OC)cc3)c21 | 0.957 µM |
| COc1cc2ncnc(Nc3ccc(OCc4ccccc4)c(C(F)(F)F)c3)c2cc1OC | 0.253 µM |
| COc1ccc(NC(=O)[C@H](Cc2ccccc2)Nc2cc(C)nc(Nc3ccccc3)n2)cc1 | 1.01 µM |
| COc1ccc(C(=O)C2CC2CN(C)CC(O)c2cc(C)c(OC)cc2C)cc1 (centres undefined) | 0.968 µM |
| COc1ccc2nccc([C@@H](O)CN3CCC(NCc4nc5cc(F)c(F)cc5[nH]4)CC3)c2c1 | 0.533 µM |
| COc1c(CN2CCCC2)cccc1-c1cc2c(-c3ccc(C(=O)O)c(C(C)C)c3)ccnc2[nH]1 | 0.439 µM |
| CCc1c(CCNCCCCCCNCCc2ccccc2)ccc(OC)c1OC | 0.8 µM |
| O=C(O)C[C@H](NC(=O)CCCNC(=O)c1cccc(-c2ccc(Cl)c(Cl)c2)c1)C(=O)O | 0.881 µM |
| COc1cc(NC(=O)/C=C/c2ccccc2OC(F)(F)F)cc(OCCN2CCCCC2)c1 | 0.19 µM |
| O=C(Nc1ccc(Cl)cc1)N1CCN(C2CCCCC2)CC1 | 0.986 µM |
| Cc1c(Cc2ccc(C(C)C)cc2)cnc2nc(N)nc(N)c12 | 0.298 µM |
| Clc1ccc(-c2nc(-c3ccncc3)c[nH]2)cc1Cl | 1.06 µM |
| COc1ccc(CNCCCCCNCc2ccc(Cl)c(Cl)c2)cc1Cl | 0.751 µM |
| Oc1ccccc1CN(CCCN(Cc1ccccn1)Cc1ccccc1O)Cc1ccccn1 | 1.06 µM |
| CCCOc1ccc(-c2nonc2NC(=O)c2cccc(OC)c2)cc1OCCC | 1.15 µM |
| Cc1cccc2c(C(=O)NC3CCN(Cc4ccccc4)CC3)cc(-c3cccnc3)nc12 | 1.38 µM |
| CCN(CC)CCN(Cc1ccc(-c2ccc(C(F)(F)F)cc2)cc1)C(=O)Cn1c(CCc2cccc(F)c2F)c(C)c(=O)c2ccccc21 | 0.942 µM |
| COc1ccccc1CCNC(=O)c1cnc(N2CCN(c3ccncc3)CC2)c(Cl)c1 | 1.15 µM |
| CCc1cc(CNC2CCN(CCc3c(F)cnc4ccc(OC)nc34)CC2)cc2c1OCCO2 | 0.264 µM |
| N=C(N)NCCCC(=O)NCC(N)=O | 0.165 µM |
| CCCC(C)n1ccc2c3c(N)nc(N)nc3ccc21 (centres undefined) | 0.0476 µM |
| Nc1nc(N)c2c(ccc3nn(C4CCCC4)cc32)n1 | 0.287 µM |

| SMILES | XC50 |
| --- | --- |
| Cc1cccc2nc(-c3ccc(-c4ccc(CNCc5ccc(CN)cc5)cc4)cc3)[nH]c12 | 0.721 µM |
| Fc1ccc(CN2CCN(c3ncnc4cc(-c5ccccc5)sc34)CC2)cc1 | 1.02 µM |
| CC1CCC(NC(=O)c2nn(-c3ccc(Cl)cc3)c(=O)c3ccccc23)CC1 (centres undefined) | 1.08 µM |
| c1ccc(CN2CCC(NCc3ccc(-c4cncc5ccccc45)cc3)CC2)cc1 | 0.877 µM |
| CN(C)CC(=O)NCC(NCCCNc1cc(=O)c2ccccc2[nH]1)c1cc(Br)cc(Br)c1 (centres undefined) | 1.05 µM |
| CCCCN(CCCC)Cc1cc2ccccc2cc1O | 0.348 µM |
| Nc1nccc2ccc(-c3cccc(OCc4ccccc4)c3)cc12 | 0.289 µM |
| O=C(c1cc2cccc([N+](=O)[O-])c2[nH]1)N1CCC(CCN2CCC(c3c[nH]c4ccccc34)CC2)CC1 | 0.943 µM |
| O=C(Nc1ccc2c(c1)CCC2)c1ccc(N2CCN(c3ccncc3)CC2)cn1 | 0.862 µM |
| COc1ccc(CCNCCCCCCNCCc2ccc(Cl)c3ccccc23)cc1OC | 0.58 µM |
| COc1ccc(-c2cccc(NC(=O)c3ccc(C#N)cc3)c2)cc1CN1CCN(C)CC1 | 0.99 µM |
| Cc1cccc(C(=O)N2CCN(Cc3cccc(NC(=O)c4ccco4)c3)CC2)c1 | 0.761 µM |
| CC(C)c1cc(C(=O)N[C@@H](Cc2ccccc2)[C@H](O)CNC2CCCCC2)cc(N2CCCC2=O)c1 | 0.121 µM |
| O=C(Nc1cccc(F)c1)N[C@H]1CCN(CCCCCNC(=O)C2CC2c2ccc(Cl)c(Cl)c2)C1 (some centres undefined) | 0.991 µM |
| Cc1noc(C)c1C(=O)N1CCCC(c2[nH]c3c(C)cccc3c2-c2ccncc2)C1 (centres undefined) | 0.843 µM |
| Cc1ccc(F)cc1S(=O)(=O)NCC(C)c1ccc(NC(=O)Nc2cccc(F)c2)cc1 (centres undefined) | 0.973 µM |
| Nc1nonc1-c1nc2c(-c3cccc(Cl)c3)nccc2n1CCCNC(=O)Cc1ccc(Cl)cc1 | 0.268 µM |
| CC(O)C1CCCCN1C(=O)c1ccc(-c2cccc(-c3nc4cc(F)ccc4[nH]3)c2)cc1 (centres undefined) | 0.54 µM |
| COc1cc2c(c(OC)c1[N+](=O)[O-])C=CC1(O2)N(C)c2ccc([N+](=O)[O-])cc2C1(C)C (centres undefined) | 0.905 µM |
| Clc1ccc(Cl)c2[nH]c(CNCCCNc3nc4ccccc4[nH]3)cc12 | 0.163 µM |
| O=C(/C=C/c1ccc(Cl)c(Cl)c1)NCCCCCCN1CCCN(C(=O)Nc2cc(F)cc(F)c2)CC1 | 0.708 µM |
| O=C(Nc1cccc(CN2CCCN(Cc3ccc(O)cc3)CC2)c1)c1cccc(Cl)c1 | 0.908 µM |
| COc1cccc(CNC(=O)NC2CCN(c3ccnc(Nc4cc(OC)c(OC)c(OC)c4)n3)C2)c1 (centres undefined) | 0.713 µM |
| O=C(O)c1ccc(-c2c[nH]c3ncc(-c4ccc(Cl)cc4)cc23)cc1 | 0.726 µM |
